Data taken from ChEMBL document CHEMBL4507304, “Data for DCP probe TP-021” (2021).

Tests used:
[1] = target: MAP kinase-interacting serine/threonine-protein kinase 1 (Homo sapiens) (UniProt Q9BUB5); details: Compound concentration 1000.0 nM
[2] = target: Serine/threonine-protein kinase 36 (Homo sapiens) (UniProt Q9NRP7); details: Compound concentration 1000.0 nM
[3] = system: Serine/threonine-protein kinase B-raf (Homo sapiens), P15056 [V600E]; details: Compound concentration 1000.0 nM
[4] = system: Receptor-type tyrosine-protein kinase FLT3 (Homo sapiens), P36888 [UNDEFINED MUTATION]; details: Compound concentration 1000.0 nM
Chain of Receptor-type tyrosine-protein kinase FLT3 (Homo sapiens), P36888 [UNDEFINED MUTATION] (P36888 whole entry, looked up, change not shown): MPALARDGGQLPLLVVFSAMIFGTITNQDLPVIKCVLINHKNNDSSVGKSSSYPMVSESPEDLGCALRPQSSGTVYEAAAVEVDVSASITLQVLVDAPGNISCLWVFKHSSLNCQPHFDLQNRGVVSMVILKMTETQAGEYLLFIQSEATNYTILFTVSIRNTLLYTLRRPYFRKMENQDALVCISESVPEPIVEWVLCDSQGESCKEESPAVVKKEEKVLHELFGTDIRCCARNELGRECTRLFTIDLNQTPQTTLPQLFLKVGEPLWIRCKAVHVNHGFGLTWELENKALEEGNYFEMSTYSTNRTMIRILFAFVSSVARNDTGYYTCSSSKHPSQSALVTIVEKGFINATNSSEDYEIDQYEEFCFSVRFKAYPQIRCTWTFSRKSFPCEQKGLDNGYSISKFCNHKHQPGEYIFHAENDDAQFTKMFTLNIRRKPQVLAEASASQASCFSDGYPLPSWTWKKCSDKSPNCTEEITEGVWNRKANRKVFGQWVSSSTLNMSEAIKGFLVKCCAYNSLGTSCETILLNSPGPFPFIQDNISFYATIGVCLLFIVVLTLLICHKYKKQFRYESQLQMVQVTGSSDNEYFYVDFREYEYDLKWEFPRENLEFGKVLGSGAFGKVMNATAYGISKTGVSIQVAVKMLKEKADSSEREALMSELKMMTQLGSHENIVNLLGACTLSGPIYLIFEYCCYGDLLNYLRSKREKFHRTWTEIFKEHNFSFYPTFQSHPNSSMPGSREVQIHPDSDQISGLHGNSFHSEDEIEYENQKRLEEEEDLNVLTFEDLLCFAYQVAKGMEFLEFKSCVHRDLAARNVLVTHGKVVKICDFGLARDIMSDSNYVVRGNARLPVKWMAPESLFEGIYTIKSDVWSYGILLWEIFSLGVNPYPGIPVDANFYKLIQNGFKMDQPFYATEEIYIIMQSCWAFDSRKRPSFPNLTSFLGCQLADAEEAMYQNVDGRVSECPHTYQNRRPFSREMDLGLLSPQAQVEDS

[5] = target: Cyclin-dependent kinase-like 1 (Homo sapiens) (UniProt Q00532); details: Compound concentration 1000.0 nM
[6] = target: Serine/threonine-protein kinase 3 (Homo sapiens) (UniProt Q13188); details: Compound concentration 1000.0 nM
[7] = target: Casein kinase II subunit alpha (Homo sapiens) (UniProt P68400); details: Compound concentration 1000.0 nM
[8] = target: Mitogen-activated protein kinase 4 (Homo sapiens) (UniProt P31152); details: Compound concentration 1000.0 nM
Chain of Mitogen-activated protein kinase 4 (Homo sapiens) (P31152 whole entry): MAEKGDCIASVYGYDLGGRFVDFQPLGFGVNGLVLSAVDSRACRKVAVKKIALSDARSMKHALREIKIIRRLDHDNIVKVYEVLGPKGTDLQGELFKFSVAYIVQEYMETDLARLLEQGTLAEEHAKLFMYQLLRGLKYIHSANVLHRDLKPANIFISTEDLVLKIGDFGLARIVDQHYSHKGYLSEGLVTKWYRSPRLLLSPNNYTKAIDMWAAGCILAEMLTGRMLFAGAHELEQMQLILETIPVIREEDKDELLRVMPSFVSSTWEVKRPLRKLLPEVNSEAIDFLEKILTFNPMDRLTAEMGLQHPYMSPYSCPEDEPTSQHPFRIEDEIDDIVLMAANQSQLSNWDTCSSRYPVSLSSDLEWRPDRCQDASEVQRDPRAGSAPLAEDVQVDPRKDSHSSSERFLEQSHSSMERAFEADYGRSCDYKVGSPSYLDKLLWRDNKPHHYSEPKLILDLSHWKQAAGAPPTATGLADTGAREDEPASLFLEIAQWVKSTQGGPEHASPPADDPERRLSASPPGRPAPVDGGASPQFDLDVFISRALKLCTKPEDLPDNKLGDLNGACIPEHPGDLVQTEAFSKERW

[9] = system: Proto-oncogene tyrosine-protein kinase receptor Ret (Homo sapiens), P07949 [V804M]; details: Compound concentration 1000.0 nM
[10] = target: Serine/threonine-protein kinase pim-1 (Homo sapiens) (UniProt P11309); details: Compound concentration 1000.0 nM
[11] = target: Mitogen-activated protein kinase 1 (Homo sapiens) (UniProt P28482); details: Compound concentration 1000.0 nM
[12] = target: Mitogen-activated protein kinase kinase kinase 3 (Homo sapiens) (UniProt Q99759); details: Compound concentration 1000.0 nM
[13] = target: Beta-2 adrenergic receptor (Homo sapiens) (UniProt P07550); details: Compound concentration 10.0 uM
[14] = target: Fibroblast growth factor receptor 2 (Homo sapiens) (UniProt P21802); details: Compound concentration 1000.0 nM
[15] = target: Serine/threonine-protein kinase LATS1 (Homo sapiens) (UniProt O95835); details: Compound concentration 1000.0 nM
Chain of Serine/threonine-protein kinase LATS1 (Homo sapiens) (O95835 whole entry): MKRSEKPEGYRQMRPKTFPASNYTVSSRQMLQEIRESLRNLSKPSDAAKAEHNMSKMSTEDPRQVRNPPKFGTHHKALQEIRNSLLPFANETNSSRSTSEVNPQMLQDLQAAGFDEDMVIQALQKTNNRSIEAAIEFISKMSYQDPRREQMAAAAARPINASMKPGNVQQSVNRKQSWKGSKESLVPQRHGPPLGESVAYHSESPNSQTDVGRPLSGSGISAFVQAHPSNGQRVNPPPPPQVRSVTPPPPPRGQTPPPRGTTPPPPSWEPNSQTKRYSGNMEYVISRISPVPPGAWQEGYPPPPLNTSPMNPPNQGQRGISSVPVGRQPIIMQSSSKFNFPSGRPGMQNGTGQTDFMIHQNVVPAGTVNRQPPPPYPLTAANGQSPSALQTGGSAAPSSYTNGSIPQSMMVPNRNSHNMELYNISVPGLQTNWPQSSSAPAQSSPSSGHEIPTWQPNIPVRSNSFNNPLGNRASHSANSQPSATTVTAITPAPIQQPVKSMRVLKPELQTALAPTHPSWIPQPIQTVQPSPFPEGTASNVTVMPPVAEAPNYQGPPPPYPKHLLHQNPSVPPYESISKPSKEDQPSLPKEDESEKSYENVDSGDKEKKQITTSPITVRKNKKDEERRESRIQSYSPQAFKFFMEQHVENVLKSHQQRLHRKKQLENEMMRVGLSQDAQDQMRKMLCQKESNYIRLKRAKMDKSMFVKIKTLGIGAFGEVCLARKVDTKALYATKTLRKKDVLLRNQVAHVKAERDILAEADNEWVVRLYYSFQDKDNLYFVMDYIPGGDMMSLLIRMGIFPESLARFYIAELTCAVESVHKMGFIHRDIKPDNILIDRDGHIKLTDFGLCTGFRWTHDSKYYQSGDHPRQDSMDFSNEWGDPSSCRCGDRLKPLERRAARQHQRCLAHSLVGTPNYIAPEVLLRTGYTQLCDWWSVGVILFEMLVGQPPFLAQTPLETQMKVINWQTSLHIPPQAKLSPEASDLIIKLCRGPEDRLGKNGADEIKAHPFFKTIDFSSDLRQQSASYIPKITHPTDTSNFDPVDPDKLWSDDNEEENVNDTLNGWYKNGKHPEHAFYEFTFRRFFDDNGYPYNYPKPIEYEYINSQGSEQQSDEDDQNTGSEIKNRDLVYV

[16] = target: Receptor-interacting serine/threonine-protein kinase 1 (Homo sapiens) (UniProt Q13546); details: Compound concentration 1000.0 nM
[17] = target: Serine/threonine-protein kinase ICK (Homo sapiens) (UniProt Q9UPZ9); details: Compound concentration 1000.0 nM
[18] = system: Phosphatidylinositol 4,5-bisphosphate 3-kinase catalytic subunit alpha isoform (Homo sapiens), P42336 [M1043I]; details: Compound concentration 1000.0 nM
[19] = target: Phosphatidylinositol 4,5-bisphosphate 3-kinase catalytic subunit beta isoform (Homo sapiens) (UniProt P42338); details: Compound concentration 1000.0 nM
Chain of Phosphatidylinositol 4,5-bisphosphate 3-kinase catalytic subunit beta isoform (Homo sapiens) (P42338 whole entry, looked up, canonical isoform): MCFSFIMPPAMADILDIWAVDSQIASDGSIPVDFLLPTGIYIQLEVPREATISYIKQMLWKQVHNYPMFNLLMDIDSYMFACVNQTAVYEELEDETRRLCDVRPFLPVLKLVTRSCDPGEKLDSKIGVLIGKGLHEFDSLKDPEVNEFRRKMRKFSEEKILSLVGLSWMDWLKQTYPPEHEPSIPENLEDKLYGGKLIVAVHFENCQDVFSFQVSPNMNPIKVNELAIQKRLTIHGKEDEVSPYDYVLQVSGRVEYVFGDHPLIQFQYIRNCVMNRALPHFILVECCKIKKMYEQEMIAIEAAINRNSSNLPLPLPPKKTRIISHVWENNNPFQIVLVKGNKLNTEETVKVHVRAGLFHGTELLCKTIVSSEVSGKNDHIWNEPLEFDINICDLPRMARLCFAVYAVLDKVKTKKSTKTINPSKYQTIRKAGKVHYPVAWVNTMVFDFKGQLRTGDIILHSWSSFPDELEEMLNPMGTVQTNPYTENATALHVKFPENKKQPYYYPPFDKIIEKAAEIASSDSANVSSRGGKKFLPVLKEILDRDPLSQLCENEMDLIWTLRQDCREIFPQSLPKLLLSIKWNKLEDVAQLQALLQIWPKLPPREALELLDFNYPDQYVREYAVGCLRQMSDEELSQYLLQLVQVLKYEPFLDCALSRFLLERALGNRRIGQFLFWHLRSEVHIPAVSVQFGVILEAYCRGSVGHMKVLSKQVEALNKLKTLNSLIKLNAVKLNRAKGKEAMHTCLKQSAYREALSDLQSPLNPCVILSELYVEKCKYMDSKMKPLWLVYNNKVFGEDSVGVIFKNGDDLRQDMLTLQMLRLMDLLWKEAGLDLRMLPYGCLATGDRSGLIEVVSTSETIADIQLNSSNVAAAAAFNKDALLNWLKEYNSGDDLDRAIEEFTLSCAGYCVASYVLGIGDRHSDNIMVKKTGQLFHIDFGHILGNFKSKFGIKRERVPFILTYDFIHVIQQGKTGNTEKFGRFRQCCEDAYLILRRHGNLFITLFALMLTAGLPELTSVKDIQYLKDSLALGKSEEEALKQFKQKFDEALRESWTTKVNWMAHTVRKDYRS

[20] = target: Vascular endothelial growth factor receptor 3 (Homo sapiens) (UniProt P35916); details: Compound concentration 1000.0 nM
[21] = system: Tyrosine-protein kinase ABL1 (Homo sapiens), P00519 [H396P]; details: Compound concentration 1000.0 nM
[22] = target: Mast/stem cell growth factor receptor Kit (Homo sapiens) (UniProt P10721); details: Compound concentration 1000.0 nM
[23] = target: Cyclin-dependent kinase-like 5 (Homo sapiens) (UniProt O76039); details: Compound concentration 1000.0 nM
[24] = target: Activin receptor type-1B (Homo sapiens) (UniProt P36896); details: Compound concentration 1000.0 nM
[25] = target: Interleukin-1 receptor-associated kinase 4 (Homo sapiens) (UniProt Q9NWZ3); details: Compound concentration 1000.0 nM
[26] = target: Mitogen-activated protein kinase kinase kinase 13 (Homo sapiens) (UniProt O43283); details: Compound concentration 1000.0 nM
[27] = target: Histamine H3 receptor (Homo sapiens) (UniProt Q9Y5N1); details: Compound concentration 10.0 uM
[28] = target: cAMP-dependent protein kinase catalytic subunit beta (Homo sapiens) (UniProt P22694); details: Compound concentration 1000.0 nM
[29] = target: STE20-like serine/threonine-protein kinase (Homo sapiens) (UniProt Q9H2G2); details: Compound concentration 1000.0 nM
Chain of STE20-like serine/threonine-protein kinase (Homo sapiens) (Q9H2G2 whole entry, looked up): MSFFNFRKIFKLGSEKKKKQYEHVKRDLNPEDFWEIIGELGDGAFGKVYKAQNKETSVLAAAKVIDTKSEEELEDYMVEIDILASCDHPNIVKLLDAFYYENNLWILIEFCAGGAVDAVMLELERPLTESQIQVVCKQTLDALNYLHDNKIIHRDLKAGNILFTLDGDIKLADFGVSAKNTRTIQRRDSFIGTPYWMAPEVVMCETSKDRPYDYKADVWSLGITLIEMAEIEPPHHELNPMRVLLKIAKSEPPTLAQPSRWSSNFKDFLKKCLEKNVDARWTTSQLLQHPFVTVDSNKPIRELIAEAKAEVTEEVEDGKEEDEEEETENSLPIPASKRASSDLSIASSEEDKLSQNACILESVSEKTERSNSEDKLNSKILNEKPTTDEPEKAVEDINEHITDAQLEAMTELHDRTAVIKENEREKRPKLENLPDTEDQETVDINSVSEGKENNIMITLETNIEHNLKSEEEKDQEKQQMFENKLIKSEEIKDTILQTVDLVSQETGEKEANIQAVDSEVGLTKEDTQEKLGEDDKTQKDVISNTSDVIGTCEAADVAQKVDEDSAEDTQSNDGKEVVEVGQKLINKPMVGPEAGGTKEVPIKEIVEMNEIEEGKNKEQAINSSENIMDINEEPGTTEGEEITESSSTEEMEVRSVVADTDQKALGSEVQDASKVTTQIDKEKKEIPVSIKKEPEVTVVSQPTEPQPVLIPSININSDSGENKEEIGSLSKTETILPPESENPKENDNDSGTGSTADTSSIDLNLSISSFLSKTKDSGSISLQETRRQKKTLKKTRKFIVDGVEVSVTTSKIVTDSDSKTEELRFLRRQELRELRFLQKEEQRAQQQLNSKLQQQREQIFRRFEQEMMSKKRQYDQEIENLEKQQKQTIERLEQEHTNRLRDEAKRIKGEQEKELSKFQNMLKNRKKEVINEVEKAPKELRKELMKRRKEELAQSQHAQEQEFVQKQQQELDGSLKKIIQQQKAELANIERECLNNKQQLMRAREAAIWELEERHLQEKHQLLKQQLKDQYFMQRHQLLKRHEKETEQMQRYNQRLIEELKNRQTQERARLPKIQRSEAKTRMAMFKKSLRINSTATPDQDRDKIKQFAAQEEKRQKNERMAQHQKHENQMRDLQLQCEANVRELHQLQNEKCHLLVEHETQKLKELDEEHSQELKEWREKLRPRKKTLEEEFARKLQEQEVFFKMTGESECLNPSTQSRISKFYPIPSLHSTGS

[30] = target: Mitotic checkpoint serine/threonine-protein kinase BUB1 (Homo sapiens) (UniProt O43683); details: Compound concentration 1000.0 nM
[31] = target: Fibroblast growth factor receptor 3 (Homo sapiens) (UniProt P22607); details: Compound concentration 1000.0 nM
[32] = target: Inhibitor of nuclear factor kappa-B kinase subunit beta (Homo sapiens) (UniProt O14920); details: Compound concentration 1000.0 nM
[33] = target: 5-hydroxytryptamine receptor 1B (Homo sapiens) (UniProt P28222); details: Compound concentration 10.0 uM
[34] = target: Ephrin type-A receptor 2 (Homo sapiens) (UniProt P29317); details: Compound concentration 1000.0 nM
[35] = target: Dual specificity testis-specific protein kinase 1 (Homo sapiens) (UniProt Q15569); details: Compound concentration 1000.0 nM
[36] = target: 5-hydroxytryptamine receptor 1D (Homo sapiens) (UniProt P28221); details: Compound concentration 10.0 uM
[37] = target: Serine/threonine-protein kinase 26 (Homo sapiens) (UniProt Q9P289); details: Compound concentration 1000.0 nM
[38] = target: Serine/threonine-protein kinase MARK2 (Homo sapiens) (UniProt Q7KZI7); details: Compound concentration 1000.0 nM
[39] = target: Serine/threonine-protein kinase BRSK2 (Homo sapiens) (UniProt Q8IWQ3); details: Compound concentration 1000.0 nM
[40] = target: Ribosomal protein S6 kinase alpha-4 (Homo sapiens) (UniProt O75676); details: Compound concentration 1000.0 nM
[41] = target: Muscarinic acetylcholine receptor M2 (Homo sapiens) (UniProt P08172); details: Compound concentration 10.0 uM
[42] = target: cGMP-dependent protein kinase 2 (Homo sapiens) (UniProt Q13237); details: Compound concentration 1000.0 nM
[43] = target: Discoidin domain-containing receptor 2 (Homo sapiens) (UniProt Q16832); details: Compound concentration 1000.0 nM
[44] = target: Protein-tyrosine kinase 6 (Homo sapiens) (UniProt Q13882); details: Compound concentration 1000.0 nM
[45] = system: Tyrosine-protein kinase ABL1 (Homo sapiens), P00519 [Q252H]; details: Compound concentration 1000.0 nM

N#Cc1ccc(Nc2ccc3[nH]c(=O)[nH]c3c2)c(Cl)c1
inactive: residual activity [1] 100% | residual activity [2] 100% | residual activity [3] 100% | residual activity [4] 100% | residual activity [5] 84% | residual activity [6] 100% | residual activity [7] 80% | residual activity [8] 100% | residual activity [9] 93% | residual activity [10] 90% | residual activity [11] 100% | residual activity [12] 84% | inhibition [13] -0.51% | residual activity [14] 100% | residual activity [15] 76% | residual activity [16] 100% | residual activity [17] 97% | residual activity [18] 100% | residual activity [19] 100% | residual activity [20] 100% | residual activity [21] 93% | residual activity [22] 100% | residual activity [23] 100% | residual activity [24] 100% | residual activity [25] 100% | residual activity [26] 100% | inhibition [27] 8.47% | residual activity [28] 96% | residual activity [29] 100% | residual activity [30] 100% | residual activity [31] 100% | residual activity [32] 89% | inhibition [33] 6.7% | residual activity [34] 84% | residual activity [35] 100% | inhibition [36] 3.68% | residual activity [37] 96% | residual activity [38] 78% | residual activity [39] 100% | residual activity [40] 70% | inhibition [41] 3.51% | residual activity [42] 87% | residual activity [43] 100% | residual activity [44] 100% | residual activity [45] 100%

O=C1CCc2cc(Nc3cc(OC4CCOCC4)c([N+](=O)[O-])cc3Cl)ccc2N1
inactive: residual activity [1] 100% | residual activity [2] 96% | residual activity [3] 100% | residual activity [4] 89% | residual activity [5] 78% | residual activity [6] 100% | residual activity [7] 84% | residual activity [8] 100% | residual activity [9] 100% | residual activity [10] 96% | residual activity [11] 99% | residual activity [12] 95% | inhibition [13] -1.73% | residual activity [14] 100% | residual activity [15] 81% | residual activity [16] 100% | residual activity [17] 100% | residual activity [18] 94% | residual activity [19] 97% | residual activity [20] 97% | residual activity [21] 89% | residual activity [22] 95% | residual activity [23] 99% | residual activity [24] 93% | residual activity [25] 100% | residual activity [26] 91% | inhibition [27] 15.1% | residual activity [28] 100% | residual activity [29] 100% | residual activity [30] 89% | residual activity [31] 100% | residual activity [32] 100% | inhibition [33] 14.3% | residual activity [34] 75% | residual activity [35] 92% | inhibition [36] 18.6% | residual activity [37] 87% | residual activity [38] 71% | residual activity [39] 100% | residual activity [40] 65% | inhibition [41] 5.41% | residual activity [42] 85% | residual activity [43] 100% | residual activity [44] 100% | residual activity [45] 100%
